Measurements taken from paper PMC8344761 (Journal of Enzyme Inhibition and Medicinal Chemistry, 2021).

Tested on: Huh7 cells xenografted onto CAM
Experiment: Huh7-xenografted CAM tumour model
Format: in vivo, chick
Settings: 10 µM final concentration on CAM; Huh7 xenograft
Protocol: Cancer cell xenograft onto chick chorioallantoic membrane (CAM), an in vivo tumour model, was used to evaluate anti-tumour efficacy of compounds. Fertilised chicken eggs purchased from Byeolbichon Farm (Gyeongbuk, South Korea) were incubated at 37 °C with 55% relative humidity. On day 9 of egg incubation (embryonic day 9, E9), a small hole was made in the shell over the air sac after the selection of bifurcated vessels. Another hole was made on the broadside using a needle by applying negative pressure from the wider part, creating false air sac. Using a grinding wheel (Dremel, Racine, WI), a small window (1 cm^2) was created in the eggshell above the false air sac. For generation of xenograft CAM tumour model, Huh7 cells (1.5 × 10^6 cells/CAM) were inoculated on the CAM with or without test drugs (10 µM final concentration). On day 13 of egg incubation (E13), tumour tissues attached to CAM were resected from the embryo and harvested. Photographs of tumour as well as blood vessel branches were taken using optical microscope (Olympus Corporation, Tokyo, Japan). Tumour tissues were weighted and the number of vessel branch points within the tumour region was counted.

With `CNC(=O)c1cc(Oc2c(C)nc(NC(=O)Nc3ccc(Cl)c(C(F)(F)F)c3)c(C)c2C)ccn1` [Compound 4, 4-((6–(3-(4-Chloro-3-(trifluoromethyl)phenyl)ureido)-2,4,5-trimethylpyridin-3-yl)oxy)-N-methylpicolinamide] the “inhibitory effect on tumour weight” value was “weaker than that of sorafenib”.
